Laboratory results reported in patent US10993976B2, “Medicament for treating uremia and proteinuria” (Shandong Zhonghai Pharmaceutical CO. LTD, priority 2016, dated 2021).

System: patient who is suffering from CRF of renal insufficiency at decompensation stage
Experiment: Clinical application of the medicament in treating uremia and proteinuria (Embodiment 7 test method)
Type: in vivo, human
Source text: Patient selection: choose the patient who is suffering from CRF of renal insufficiency at decompensation stage (The content of SCr is within the range of 186-442 umol/L) to study. The primary disease is chronic glomerulonephritis (CGN) and nephrotic syndrome (NS), except CRF caused by renal arteriosclerosis, diabetic nephropathy and renal cysts.
These investigated patients were randomly divided into groups, 50 patients in each group, aged 19-66 years (mean 44.6±12.6 years), with a course of disease 12-46 months (mean 22.6±8.6 months).
Treatment group 1-6: The patients in embodiment 1-6 received the medicament mentioned of the invention, with a dose of 3 g/day, three times a day.
Control group: The patients received the oral administration of coated aldehyde oxystarch 5 g-10 g, twice a day.
All groups were treated with 1 month as a course of treatment.
The patients stopped using Chinese and western medicine 2 weeks before treatment. […] They were given high quality low protein, low phosphorus and high calorie diet, correction of water and electrolyte disorders and acidosis, and anti-infection, in order to remove those reversible factors that may cause temporary renal dysfunction. Lotensin 5-20 mg was given to the patients with hypertension, once a day, or/and nifedipine 10-20 mg, three or four times a day.
X2 test was used for enumeration data and t test was used for measurement data. […]

[1] = 50 patients per group, after 3 courses of treatment (1 month each), medicament 3 g/day
[2] = patients, after 3 courses of treatment

coated aldehyde oxystarch [Contrast] was tested, and the “Total effective rate (%)” value (50 patients per group, after 3 courses of treatment) was 64%, the “Effective (case)” value [1] was 22 case and the “Ineffective (case)” value [1] was 18 case. For the same substance, the “Markedly effective (case)” value [1] was 10 case, the “Blood coagulation factor I” value (Fib, patients, after 3 courses of treatment) was 3.88 ± 0.48 g/L and the Hb (hemoglobin, patients, after 3 courses of treatment) was 82.4 ± 9.5 g/L. It also gave a Urine protein (patients, 24 h urine protein, after 3 courses of treatment) of 2.78 ± 1.59 g/24 h, a Blood usea nitrogen [2] of 16.0 ± 6.4 mmol/L and an SCr [2] of 298.5 ± 76.8 µmol/L. It also gave a Whole blood viscosity [2] of 4.98 ± 1.0 and an Alb (plasma albumin, patients, after 3 courses of treatment) of 30.4 ± 3.0 g/L.
